Consider five compounds from ChEMBL document CHEMBL1201862, “PubChem BioAssay data set” (2004).

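Growth conditions: 96-well plates. Treatment: test compound, 48 hours, 5 concentrations. Analysis: linear interpolation between bracketing concentrations; unreached endpoints set to highest concentration. The concentration for 50% growth inhibition is given as GI50.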 The source made the active and inactive calls. Rule as the data show it: active = GI50 up to about 1.1 µM and inactive = higher.

Test systems include HT-29; NCI-H460; HCT-15; SNB-19; OVCAR-8; SNB-75; SK-MEL-5; UACC-257; DU-145; HCC 2998; ACHN; UACC-62; MDA-MB-231; K562; OVCAR-5; Malme-3M; CCRF-CEM.
Holding throughout (test): NCI anticancer screen, dose series, 48 h

`O=c1oc2cc(O)ccc2c(O)c1C(c1ccccc1F)c1c(O)c2ccc(O)cc2oc1=O`: the GI50 with HT-29 is > 100 µM (inactive); in the test on NCI-H460 it was > 100 µM (inactive); with HCT-15, 31 µM; with SNB-19 it was > 100 µM (inactive); in the test with OVCAR-8, 56.4 µM (inactive); with SNB-75 it was > 100 µM (inactive). The GI50 in the test on SK-MEL-5 was 28.4 µM (inactive); in the test with UACC-257, > 100 µM (inactive); with DU-145, > 100 µM (inactive); in the test with HCC 2998, 21.2 µM (inactive); in the test with ACHN, > 100 µM (inactive); in the test with UACC-62, 36.6 µM (inactive). In addition, the figures for the GI50 with MDA-MB-231, in the test with K562 and in the test with OVCAR-5 were 95.7 µM (inactive), 25.4 µM (inactive) and > 100 µM (inactive), respectively.
As to `N#C/C(=C/NC(=S)Nc1ccc(S(N)(=O)=O)cc1)C(N)=O`, the GI50 in the test on HT-29 is > 100 µM (inactive); in the test on Malme-3M, > 100 µM (inactive); in the test with NCI-H460, > 100 µM (inactive); in the test with HCT-15 it was > 100 µM; in the test with OVCAR-8, > 100 µM (inactive); with SNB-75, 42.1 µM (inactive). Besides, the GI50 with SK-MEL-5, with UACC-257, in the test with DU-145, with HCC 2998, with ACHN and in the test on UACC-62 was > 100 µM (inactive) each time. Also, the GI50 in the test with OVCAR-5 was > 100 µM (inactive).
Regarding `CCN(CC)CCNC(=O)c1cc2cc(NC(=O)c3cc4cc([N+](=O)[O-])ccc4[nH]3)ccc2[nH]1`, the GI50 with HT-29 is 2.93 µM (inactive); in the test with NCI-H460, 2.92 µM (inactive); with HCT-15, > 100 µM; in the test with SNB-19, 49.8 µM (inactive); in the test on OVCAR-8, 2.99 µM (inactive); in the test on SNB-75, 4.89 µM (inactive). Moreover, the GI50 with SK-MEL-5 was 3.85 µM (inactive); in the test on UACC-257, 29.4 µM (inactive); in the test on DU-145, 14.2 µM (inactive); in the test with HCC 2998, 11.2 µM (inactive); in the test on ACHN, 35.1 µM (inactive); with UACC-62 it was 32 µM (inactive). For the same compound, the GI50 was 3.83 µM (inactive) with MDA-MB-231, 1.61 µM (inactive) in the test with K562 and 69.7 µM (inactive) in the test with OVCAR-5.
Take `O=c1[nH]c(=O)n(COCCO)c2ccc(Br)cc12`: the GI50 with HT-29 was > 100 µM (inactive); in the test on NCI-H460 it was > 100 µM (inactive); with CCRF-CEM it was > 100 µM (inactive); in the test with HCT-15 it was 45.9 µM; in the test on SNB-19, 50.6 µM (inactive); in the test on OVCAR-8 it was > 100 µM (inactive). Besides, the GI50 with SNB-75 is 39 µM (inactive); in the test with SK-MEL-5 it was > 100 µM (inactive); in the test on UACC-257, > 100 µM (inactive); in the test on DU-145 it was > 100 µM (inactive); in the test on ACHN it was > 100 µM (inactive); in the test on UACC-62, > 100 µM (inactive). Moreover, the GI50 in the test with MDA-MB-231, in the test with K562 and with OVCAR-5 was > 100 µM (inactive) throughout.
In the case of `Cc1c(C(=O)C(=O)c2ccccc2)c(C)c(C(=O)C(=O)c2ccccc2)c(C)c1C(=O)C(=O)c1ccccc1`, the GI50 in the test on HT-29 is > 100 µM (inactive); in the test on NCI-H460 it was > 100 µM (inactive); with CCRF-CEM, > 100 µM (inactive); with HCT-15, > 100 µM; in the test with SNB-19, > 100 µM (inactive); in the test with OVCAR-8, > 100 µM (inactive). Moreover, the GI50 in the test with SNB-75, in the test on SK-MEL-5, in the test with UACC-257, in the test with HCC 2998, in the test on ACHN and with MDA-MB-231 was > 100 µM (inactive) each time. The GI50 in the test with K562 and in the test with OVCAR-5 was > 100 µM (inactive) throughout.
